# In ChEMBL document CHEMBL1125407, “Noncataleptogenic, centrally acting dopamine D-2 and serotonin 5-HT2 antagonists within a series of 3-substituted 1-(4-fluorophenyl)-1H-indoles” (J Med Chem, 1992):
# Columns and labels:
# [1] = target: T1, Serotonin 2 (5-HT2) receptor (Rattus norvegicus, UniProt P30994+P08909+P14842); test: Inhibition of [3H]ketanserin binding to […] 5-hydroxytryptamine 2 receptor; format: protein assay
# [2] = target: D(2) dopamine receptor (Rattus norvegicus) (UniProt P61169); test: Tested in vivo for induction of catalepsy against D2 receptor in rats; format: functional, organism-based
# D(2) dopamine receptor (Rattus norvegicus), sequence (P61169 whole entry): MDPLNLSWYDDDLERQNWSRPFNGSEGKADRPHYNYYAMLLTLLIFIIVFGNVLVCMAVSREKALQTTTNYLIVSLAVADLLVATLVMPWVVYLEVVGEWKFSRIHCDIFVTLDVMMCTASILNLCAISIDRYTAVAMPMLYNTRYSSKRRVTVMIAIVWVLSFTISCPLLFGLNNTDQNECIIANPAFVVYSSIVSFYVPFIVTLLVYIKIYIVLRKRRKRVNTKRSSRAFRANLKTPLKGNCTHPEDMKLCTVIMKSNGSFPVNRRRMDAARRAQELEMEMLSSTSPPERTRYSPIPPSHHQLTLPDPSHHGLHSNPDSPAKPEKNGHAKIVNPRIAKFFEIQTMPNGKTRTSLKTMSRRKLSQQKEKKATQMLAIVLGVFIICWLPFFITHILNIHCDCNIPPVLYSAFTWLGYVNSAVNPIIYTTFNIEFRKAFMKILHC
# D(2) dopamine receptor = D(2) dopamine receptor (Rattus norvegicus, UniProt P61169); test: Tested for the inhibition of [3H]spiperone binding to dopamine D2 receptor
# D(2) dopamine receptor, sequence (P61169 whole entry): as above
# Rattus norvegicus [3] = species: Rattus norvegicus; test: Inhibition of quipazine induced head twitches in rats; format: functional
# [4] = target: D(2) dopamine receptor (Mus musculus) (UniProt P61168); test: Tested in vivo for methyl phenidate-induced gnawing behavior antagonistic activity against dopamine D2 receptor in mice; format: functional, organism-based
# D(2) dopamine receptor (Mus musculus), sequence (P61168 whole entry): as the sequence (P61169 whole entry) above, with A29P counted along it
# Rattus norvegicus [5] = test: Compound was tested for the inhibition of quipazine-induced head twitches 24 hours after subcutaneous administration; format: functional; details: sc
# [6] = target: T1, Serotonin 2 (5-HT2) receptor; test: Inhibition of [3H]ketanserin binding to rat 5-hydroxytryptamine 2 receptors.; format: protein assay
# [7] = target: D(2) dopamine receptor (Mus musculus) (UniProt P61168); test: (§1) Compound was tested in vivo for methyl phenidate-induced gnawing behavior antagonistic activity against dopamine D-2 receptor in mice; format: functional, organism-based
# [8] = target: D(2) dopamine receptor (Rattus norvegicus) (UniProt P61169); test: Compound was tested in vivo for induction of catalepsy against D-2 receptor in rats; format: organism-based
# [9] = target: D(2) dopamine receptor (Rattus norvegicus) (UniProt P61169); test: as §1; format: functional, organism-based
# [10] = target: T2, Serotonin 2 (5-HT2) receptor (Rattus norvegicus) (UniProt P30994+P08909+P14842); test: Compound was tested for the inhibition of quipazine binding at 5-HT2 receptor; format: protein assay
# T2 sequence (P08909 whole entry, looked up): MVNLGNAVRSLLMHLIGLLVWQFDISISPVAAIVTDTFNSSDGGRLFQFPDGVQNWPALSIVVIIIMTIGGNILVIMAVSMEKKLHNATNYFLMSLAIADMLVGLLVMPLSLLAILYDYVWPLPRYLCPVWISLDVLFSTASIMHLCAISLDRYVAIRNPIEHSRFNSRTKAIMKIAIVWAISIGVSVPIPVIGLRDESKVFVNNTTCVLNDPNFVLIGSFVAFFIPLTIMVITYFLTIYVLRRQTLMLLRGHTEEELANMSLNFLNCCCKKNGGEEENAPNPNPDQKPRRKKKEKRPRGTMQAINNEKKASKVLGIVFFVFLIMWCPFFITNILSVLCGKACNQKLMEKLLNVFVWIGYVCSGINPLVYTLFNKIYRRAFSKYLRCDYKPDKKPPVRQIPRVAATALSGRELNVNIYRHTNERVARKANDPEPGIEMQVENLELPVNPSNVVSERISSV
# T2 sequence (P14842 whole entry, looked up): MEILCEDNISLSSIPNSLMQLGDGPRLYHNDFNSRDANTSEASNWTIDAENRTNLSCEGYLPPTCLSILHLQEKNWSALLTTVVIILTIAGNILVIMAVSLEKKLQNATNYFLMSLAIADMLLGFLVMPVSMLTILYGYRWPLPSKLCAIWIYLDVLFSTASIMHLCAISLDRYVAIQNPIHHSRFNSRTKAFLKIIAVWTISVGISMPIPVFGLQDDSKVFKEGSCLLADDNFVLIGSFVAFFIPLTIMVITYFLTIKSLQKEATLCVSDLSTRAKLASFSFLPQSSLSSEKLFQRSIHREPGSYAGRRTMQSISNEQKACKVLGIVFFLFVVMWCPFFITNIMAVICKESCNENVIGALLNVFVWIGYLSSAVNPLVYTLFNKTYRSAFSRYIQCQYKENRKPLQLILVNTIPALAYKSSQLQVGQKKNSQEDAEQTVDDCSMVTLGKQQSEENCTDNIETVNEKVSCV
# T2 sequence (P30994 whole entry, looked up): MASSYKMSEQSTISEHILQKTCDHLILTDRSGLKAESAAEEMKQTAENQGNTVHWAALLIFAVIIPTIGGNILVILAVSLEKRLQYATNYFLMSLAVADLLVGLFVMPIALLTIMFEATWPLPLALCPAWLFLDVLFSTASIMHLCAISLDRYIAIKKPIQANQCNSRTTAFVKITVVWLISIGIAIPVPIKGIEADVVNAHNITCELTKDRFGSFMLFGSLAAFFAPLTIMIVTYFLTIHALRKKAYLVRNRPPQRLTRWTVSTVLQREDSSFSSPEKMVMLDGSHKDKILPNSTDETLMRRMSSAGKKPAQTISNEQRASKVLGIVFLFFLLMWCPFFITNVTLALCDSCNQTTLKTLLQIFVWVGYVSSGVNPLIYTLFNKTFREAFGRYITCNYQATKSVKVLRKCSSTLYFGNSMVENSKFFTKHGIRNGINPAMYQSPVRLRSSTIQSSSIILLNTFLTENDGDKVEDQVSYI
# [11] = target: T2, Serotonin 2 (5-HT2) receptor (Rattus norvegicus); test: Compound was tested for the inhibition of quipazine binding at 5-hydroxytryptamine 2 receptor; format: protein assay
Structure (SMILES),IC50 (D(2) dopamine receptor) [nM],ED50 [4] [µmol/kg],IC50 [6] [nM],ED50 [2] [µmol/kg],ED50 (Rattus norvegicus [3]) [µmol/kg],other results
CN1CCN(c2cn(-c3ccc(F)cc3)c3ccc(Cl)cc23)CC1,1,0.12,–,0.23,0.041,IC50 [1]: 0.3 nM
O=C1NCCN1CCN1CC=C(c2cn(-c3ccc(F)cc3)c3ccc(Cl)cc23)CC1,2.3,2,–,2.2,0.22,ED50 (Rattus norvegicus [5]): 1.2 µmol/kg
OCCN1CCN(c2cn(-c3ccc(F)cc3)c3ccc(C(F)(F)F)cc23)CC1,–,0.079,–,0.06,0.023,IC50 [1]: 1.4 nM
O=C1N(CCN2CCC(c3cn(-c4ccc(F)cc4)c4ccc(Cl)cc34)CC2)CCN1c1ccccc1,92,–,4.4,–,> 0.15,ED50 [7]: > 77 µmol/kg
N#Cc1ccc2c(c1)c(C1=CCN(CCN3CCNC3=O)CC1)cn2-c1ccc(F)cc1,2.1,–,3.2,–,–,ED50 [8]: 0.37 µmol/kg
O=C1NCCN1CCN1CCN(c2cn(-c3ccc(F)cc3)c3ccc(Cl)cc23)CC1,21,7.8,–,4.5,0.015,IC50 [1]: 4.4 nM
Fc1ccc(-n2cc(C3CCNCC3)c3cc(Cl)ccc32)cc1,23,–,3.8,–,1.5,ED50 [7]: > 90 µmol/kg
Fc1ccc(-n2cc(C3=CCNCC3)c3cc(Cl)ccc32)cc1,–,–,–,> 61,1.5,ED50 [9]: 17 µmol/kg
O=C1NCCN1CCN1CCC(c2cn(-c3ccc(F)cc3)c3ccccc23)CC1,18,> 98,0.082,> 98,0.036,ED50 (Rattus norvegicus [5]): 0.082 µmol/kg
CN1CC=C(c2cn(-c3ccc(F)cc3)c3ccc([N+](=O)[O-])cc23)CC1,0.76,0.022,–,0.025,0.0091,IC50 [1]: 1.9 nM
Fc1ccc(-n2cc(C3=CCNCC3)c3cc(C(F)(F)F)ccc32)cc1,–,2.1,–,> 14,> 0.86,–
O=C1N(CCN2CCC(c3cn(-c4ccc(F)cc4)c4ccc(Cl)cc34)CC2)CCN1C1CCCC1,–,–,–,–,–,ED50 [10]: > 2.1 µmol/kg; ED50 [7]: > 67 µmol/kg
Cc1nc2n(c(=O)c1CCN1CCC(c3noc4cc(F)ccc34)CC1)CCCC2 [RISPERIDONE],–,–,–,–,–,ED50 (Rattus norvegicus [5]): > 3 µmol/kg
CN1CC=C(c2cn(-c3ccc(F)cc3)c3ccc(Cl)cc23)CC1,1.1,0.085,–,0.085,0.058,IC50 [1]: 0.53 nM; ED50 (Rattus norvegicus [5]): > 0.19 µmol/kg
OCCN1CCN([C@@H]2C[C@@H](c3ccc(F)cc3)c3ccc(C(F)(F)F)cc32)CC1 (racemic) [TEFLUDAZINE],–,0.2,2.8,0.12,0.029,–
O=C1NCCN1CCN1CCC(c2c[nH]c3ccc(Cl)cc23)CC1,810,–,25,–,> 14,ED50 [8]: 47 µmol/kg
O=C1NCCN1CCN1CCC(c2cn(-c3ccc(F)cc3)c3ccc(Cl)cc23)(c2cn(-c3ccc(F)cc3)c3ccc(Cl)cc23)CC1,–,–,–,–,–,IC50 [1]: 120 nM
CN1CC=C(c2cn(-c3ccc(F)cc3)c3ccc(F)cc23)CC1,–,0.44,–,0.64,0.15,IC50 [1]: 3 nM
O=C1NCCN1CCN1CC=C(c2cn(-c3ccc(F)cc3)c3ccc(C(F)(F)F)cc23)CC1,–,0.37,–,0.49,> 0.66,ED50 [11]: 0.14 µmol/kg
CN1CCN(C2=Nc3cc(Cl)ccc3Nc3ccccc32)CC1 [CLOZAPINE],–,–,–,–,–,ED50 (Rattus norvegicus [5]): > 31 µmol/kg
OCCN1CCC(c2cn(-c3ccc(F)cc3)c3ccc(Cl)cc23)CC1,4.5,1.5,2.7,3.8,0.034,–
CN1CC=C(c2cn(-c3ccc(F)cc3)c3ccccc23)CC1,1.6,1.3,–,3.6,0.15,–

# More lines, main results first:
IC50 (D(2) dopamine receptor) [nM],ED50 [4] [µmol/kg],IC50 [6] [nM],Structure (SMILES),ED50 [2] [µmol/kg],ED50 (Rattus norvegicus [3]) [µmol/kg],other results
3.4,57,1,O=C1NCCN1CCCN1CCC(c2cn(-c3ccc(F)cc3)c3ccc(Cl)cc23)CC1,11,1.8,–
4.7,> 78,0.48,O=C1NCCN1CCN1CCC(c2cn(-c3ccc(F)cc3)c3ccc(F)cc23)CC1,> 78,0.052,ED50 (Rattus norvegicus [5]): 0.0097 µmol/kg
24,> 76,1,COc1ccc2c(c1)c(C1CCN(CCN3CCNC3=O)CC1)cn2-c1ccc(F)cc1,> 46,0.77,–
1.9,22,1,O=C1NCCN1CCN1CCC(c2cn(-c3ccc(F)cc3)c3ccc(C(F)(F)F)cc23)CC1,45,0.11,–
2.2,34,1.3,N#Cc1ccc2c(c1)c(C1CCN(CCN3CCNC3=O)CC1)cn2-c1ccc(F)cc1,–,–,–
3.8,> 82,1.3,O=C1NCCN1CCN1CCC(c2cn(-c3ccc(F)cc3)c3ccc(Br)cc23)CC1,> 41,0.032,–
3.7,98,0.3,Cc1ccc2c(c1)c(C1CCN(CCN3CCNC3=O)CC1)cn2-c1ccc(F)cc1,> 91,0.0083,–
78,> 72,59,O=C1NCCN1CCCCN1CCC(c2cn(-c3ccc(F)cc3)c3ccc(Cl)cc23)CC1,–,> 2.2,–
5.8,> 67,8,CS(=O)(=O)c1ccc2c(c1)c(C1CCN(CCN3CCNC3=O)CC1)cn2-c1ccc(F)cc1,> 17,54,–
4.2,14,1.5,O=C1NCCN1CCCCCN1CCC(c2cn(-c3ccc(F)cc3)c3ccc(Cl)cc23)CC1,–,1.5,–
12,> 69,2.1,CC(C)N1CCN(CCN2CCC(c3cn(-c4ccc(F)cc4)c4ccc(Cl)cc34)CC2)C1=O,> 69,0.046,–
6.5,2.6,0.24,CN1CCN(CCN2CCC(c3cn(-c4ccc(F)cc4)c4ccc(Cl)cc34)CC2)C1=O,31,0.021,–
–,> 180,–,O=C1NCCN1CCN1CCC(c2cn(-c3ccc(F)cc3)c3ccc(Cl)cc23)CC1 [SERTINDOLE],> 91,0.052,ED50 (Rattus norvegicus [5]): 0.03 µmol/kg
2.2,2.7,–,O=C1NCCN1CCCCCCN1CCC(c2cn(-c3ccc(F)cc3)c3ccc(Cl)cc23)CC1,20,> 2.2,IC50 [1]: 2.5 nM
